Measurements reported in patent publication US11253495B2, “Pharmaceutical composition for treating excessive lactate production and acidemia” (priority 2018, dated 2022).

Legend:
cardiac arrest rat model = experiment: Cardiac arrest rat model with CPR: mortality, brain death score, serum lactate and pH, organ ATP; assay type: in vivo; conditions: for Serum lactate: FIG. 2, 24 hours after ROSC or right before death, vs G1 saline, combination vs single agent; for Mortality at 24 hours after ROSC: rats, 7 min cardiac arrest, iv treatment 10 minutes after ROSC, doses of Table 1, n=8 each group
[1] = test system: focal cerebral ischemia rat model; experiment: Focal cerebral ischemia rat model (3 h MCA occlusion, 21 h reperfusion): behavioral deficit, infarct size, serum lactate, brain ATP; assay type: in vivo; conditions: FIG. 10; 24 hours after ischemia; vs G1 saline; combination vs single agent
Procedure: 180-230 g CD rats were used. Ketamine/xylazine 30 mg/kg ip was given for anesthesia in each rat. A midline incision on the neck was made. The left common carotid artery, the external carotid artery (ECA) and the internal carotid artery (ICA) were exposed. The ECA was ligated and severed. Focal cerebral ischemia was produced by a 3.0 nylon suture that was advanced from the ECA to ICA to block the origin of left middle cerebral artery. The nylon suture was left in place to induce focal cerebral ischemia on left hemisphere supplied by middle cerebral artery. The ischemia lasted for 3 hours, the nylon suture was then removed to allow blood reperfusion for 21 hours.
This treatment time point is one hour before restoring blood flow (reperfusion).
At 24 hours after cerebral ischemia, each rat was evaluated for behavioral deficits. A score of 0-4 was used to assess the motor and behavioral changes. Score 0: No apparent deficits, Score 1: Contralateral forelimb flexion, Score 2: Decreased grip of the contralateral forelimb when the tail is pulled, Score 3: Spontaneous movement in all directions; contralateral circling only if pulled by tail and Score 4: Spontaneous contralateral circling.
At 24 hours after ischemia, blood samples were collected, serum lactate, was measured using blood chemistry analyzer. LDH was measured using colorimetric method.
After blood samples collection, each rat was euthanized. The brain was excised. A small piece of the cortex in ischemic core was obtained, weighed and then homogenized at 0° C. The ATP content was evaluated using ATP content measurement using luciferase-luciferin luminescence detection assay.
Each brain was immediately cut into 6 coronal sections (1 mm in thickness) and stained with 1% 2,3,5-triphenyltetrazolium chloride (TTC) in PBS solution at 37° C. for 10 minutes. The infarct size was identified as the non-TTC-stained area, the infarction percentage (%) was calculated by the ratio of area of infarction size to area of whole brain.

phenformin intoxication = experiment: Phenformin intoxication and severe lactate acidemia in mice: survival time, serum lactate, serum pH; assay type: in vivo, CD-1 mice; conditions: doses of Table 4, vs G1 saline; for Serum lactate at 1 hour after phenformin intoxication: FIG. 14, combination vs single agent; for Serum pH value at 1 hour after phenformin intoxication: FIG. 15
Procedure: CD-1 mice (20-25 gram) were used. All mice were pre-treated according to the Table 4.
10 minutes after treatment, intoxication of severe lactate acidemia was induced by injecting phenformin chloride (concentration 20 mg/ml) at dose of 200 mg/kg intraperitoneally. At 1 hour after phenformin injection, serum lactate and pH were measured.

Compound | Serum lactate (cardiac arrest rat model) | Serum lactate content [1] | Serum lactate at 1 hour after phenformin intoxication (phenformin intoxication) | Mortality at 24 hours after ROSC (cardiac arrest rat model) | Serum pH value at 1 hour after phenformin intoxication (phenformin intoxication)
Cc1ncc(COP(=O)(O)O)c(C=O)c1O [PLP, pyridoxal 5′-phosphate] | reduce lactate production | reduce lactate production | reduce lactate production |  | 
NC(=O)C(=O)[O-].[Na+] [Sodium oxamate] | reduce lactate production | reduce lactate production | reduce lactate production | 1 out of 8 | 
N#Cc1cc(NC(=O)C(=O)O)c(Cl)c(NC(=O)C(=O)O)c1.NC(CO)(CO)CO.NC(CO)(CO)CO [Lodoxamide tromethamine] |  |  | reduce lactate production |  | 
O=C([O-])CC(=O)C(=O)O.[Na+] [oxaloacetate, Sodium oxaloacetate] | reduce lactate production | reduce lactate production | reduce lactate production |  | 
N[C@@H](CC(=O)[O-])C(=O)[O-].[Na+].[Na+] [sodium aspartate, Sodium Aspartate] | reduce lactate production | reduce lactate production | reduce lactate production |  | particularly effective
N[C@@H](CCC(=O)[O-])C(=O)[O-].[Na+].[Na+] [Sodium glutamate] | reduce lactate production | reduce lactate production | reduce lactate production | 1 out of 8 | particularly effective
